Measured values taken from the supplement of paper PMC12076712.

Tests used:
Assay in all cases: pIC50, kinobeads binding competition
ACVR2A = ACVR2A (UniProt P27037); conditions: cell material: Lysate mix
Outline: (§1)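 pIC50 was obtained by fitting fold changes against vehicle to logistic dose-response curves with the R drc package, using biological duplicates. Kinobeads-bound proteins were digested and measured by TMT10 LC-MS/MS. Before this, either living Jurkat cells received nine compound concentrations (top 30 μM, 1:4 steps) for 60 min at 37 °C prior to lysis, or Jurkat lysate or a 1:1:1:1 HEK293/K-562/HepG2/placenta lysate mix received nine concentrations (top 30 μM, 1:5 steps) for 60 min at 4 °C.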

BRSK2 = target: T1, BRSK2 (UniProt Q8IWQ3)
T1 sequence (whole entry): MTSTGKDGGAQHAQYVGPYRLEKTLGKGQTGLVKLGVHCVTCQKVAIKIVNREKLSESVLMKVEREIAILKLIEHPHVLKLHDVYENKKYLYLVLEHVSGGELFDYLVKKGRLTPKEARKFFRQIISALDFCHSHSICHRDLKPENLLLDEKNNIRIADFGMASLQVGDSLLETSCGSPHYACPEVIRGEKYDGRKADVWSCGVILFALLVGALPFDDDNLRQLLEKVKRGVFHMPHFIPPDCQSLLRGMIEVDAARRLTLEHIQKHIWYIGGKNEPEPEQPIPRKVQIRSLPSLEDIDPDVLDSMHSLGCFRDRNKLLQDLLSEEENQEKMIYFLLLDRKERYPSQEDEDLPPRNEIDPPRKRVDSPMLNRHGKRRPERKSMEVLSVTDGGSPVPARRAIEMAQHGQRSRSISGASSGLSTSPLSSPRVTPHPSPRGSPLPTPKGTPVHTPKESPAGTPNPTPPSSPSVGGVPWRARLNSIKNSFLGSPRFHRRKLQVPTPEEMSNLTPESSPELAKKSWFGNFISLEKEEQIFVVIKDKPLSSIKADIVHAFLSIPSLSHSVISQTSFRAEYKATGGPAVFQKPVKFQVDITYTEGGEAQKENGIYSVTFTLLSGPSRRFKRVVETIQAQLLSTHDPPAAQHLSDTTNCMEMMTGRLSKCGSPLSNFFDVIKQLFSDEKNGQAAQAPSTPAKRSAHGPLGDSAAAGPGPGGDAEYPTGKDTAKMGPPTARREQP
Outline: as §1

LATS1 = target: T2, LATS1 (UniProt O95835)
T2 sequence (whole entry): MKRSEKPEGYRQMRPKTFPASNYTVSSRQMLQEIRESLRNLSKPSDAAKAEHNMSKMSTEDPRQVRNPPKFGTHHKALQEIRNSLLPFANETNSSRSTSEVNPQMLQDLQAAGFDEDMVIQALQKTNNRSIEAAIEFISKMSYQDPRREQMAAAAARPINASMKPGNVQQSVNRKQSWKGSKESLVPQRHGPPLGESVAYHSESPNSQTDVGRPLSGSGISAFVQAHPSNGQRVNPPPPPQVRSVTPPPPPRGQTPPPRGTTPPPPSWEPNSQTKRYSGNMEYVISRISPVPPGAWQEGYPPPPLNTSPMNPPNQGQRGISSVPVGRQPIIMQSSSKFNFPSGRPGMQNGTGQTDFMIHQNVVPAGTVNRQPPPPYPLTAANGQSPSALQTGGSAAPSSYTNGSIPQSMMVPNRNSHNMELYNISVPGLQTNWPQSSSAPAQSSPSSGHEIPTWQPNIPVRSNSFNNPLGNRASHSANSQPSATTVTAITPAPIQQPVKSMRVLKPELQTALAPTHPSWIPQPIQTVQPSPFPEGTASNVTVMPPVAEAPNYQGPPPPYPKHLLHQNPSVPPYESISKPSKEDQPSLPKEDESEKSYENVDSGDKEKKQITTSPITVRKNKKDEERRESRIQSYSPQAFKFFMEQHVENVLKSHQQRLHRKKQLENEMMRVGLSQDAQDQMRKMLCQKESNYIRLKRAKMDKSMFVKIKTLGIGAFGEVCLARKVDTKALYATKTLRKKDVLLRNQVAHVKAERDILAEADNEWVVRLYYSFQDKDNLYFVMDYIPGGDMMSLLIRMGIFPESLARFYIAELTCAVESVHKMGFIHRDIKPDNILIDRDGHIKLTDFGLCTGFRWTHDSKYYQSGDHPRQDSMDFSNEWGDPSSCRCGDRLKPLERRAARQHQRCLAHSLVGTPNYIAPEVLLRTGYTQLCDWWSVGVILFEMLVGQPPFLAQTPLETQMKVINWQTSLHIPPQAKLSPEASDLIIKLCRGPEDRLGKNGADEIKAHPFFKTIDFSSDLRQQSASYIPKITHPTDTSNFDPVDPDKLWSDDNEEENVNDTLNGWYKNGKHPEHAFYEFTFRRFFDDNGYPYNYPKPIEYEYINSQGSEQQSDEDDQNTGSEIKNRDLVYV
Outline: as §1

NEK7 = NEK7 (UniProt Q8TDX7)
NEK7, sequence (Q8TDX7 whole entry, looked up): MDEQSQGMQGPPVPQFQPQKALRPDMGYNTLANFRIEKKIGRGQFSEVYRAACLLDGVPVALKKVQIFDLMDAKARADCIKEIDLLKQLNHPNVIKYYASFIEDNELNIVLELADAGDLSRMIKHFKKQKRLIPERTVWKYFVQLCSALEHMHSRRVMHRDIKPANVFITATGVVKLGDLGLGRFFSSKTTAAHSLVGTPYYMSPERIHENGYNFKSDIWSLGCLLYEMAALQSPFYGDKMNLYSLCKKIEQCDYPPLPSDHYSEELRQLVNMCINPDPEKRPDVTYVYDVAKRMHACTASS
Outline: as §1

PDIK1L = PDIK1L (UniProt Q8N165)
PDIK1L, sequence (Q8N165 whole entry): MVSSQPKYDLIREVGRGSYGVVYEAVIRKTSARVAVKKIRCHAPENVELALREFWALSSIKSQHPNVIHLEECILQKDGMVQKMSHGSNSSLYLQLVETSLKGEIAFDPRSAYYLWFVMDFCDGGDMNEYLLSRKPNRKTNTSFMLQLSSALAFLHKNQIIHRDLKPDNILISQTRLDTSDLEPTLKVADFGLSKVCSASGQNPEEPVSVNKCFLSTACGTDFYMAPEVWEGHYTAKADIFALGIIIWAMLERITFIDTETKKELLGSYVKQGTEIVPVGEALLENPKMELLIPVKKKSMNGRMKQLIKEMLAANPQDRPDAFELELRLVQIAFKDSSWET
Outline: as §1

UniProt O14920 = target: T3, UniProt O14920
T3 sequence (whole entry): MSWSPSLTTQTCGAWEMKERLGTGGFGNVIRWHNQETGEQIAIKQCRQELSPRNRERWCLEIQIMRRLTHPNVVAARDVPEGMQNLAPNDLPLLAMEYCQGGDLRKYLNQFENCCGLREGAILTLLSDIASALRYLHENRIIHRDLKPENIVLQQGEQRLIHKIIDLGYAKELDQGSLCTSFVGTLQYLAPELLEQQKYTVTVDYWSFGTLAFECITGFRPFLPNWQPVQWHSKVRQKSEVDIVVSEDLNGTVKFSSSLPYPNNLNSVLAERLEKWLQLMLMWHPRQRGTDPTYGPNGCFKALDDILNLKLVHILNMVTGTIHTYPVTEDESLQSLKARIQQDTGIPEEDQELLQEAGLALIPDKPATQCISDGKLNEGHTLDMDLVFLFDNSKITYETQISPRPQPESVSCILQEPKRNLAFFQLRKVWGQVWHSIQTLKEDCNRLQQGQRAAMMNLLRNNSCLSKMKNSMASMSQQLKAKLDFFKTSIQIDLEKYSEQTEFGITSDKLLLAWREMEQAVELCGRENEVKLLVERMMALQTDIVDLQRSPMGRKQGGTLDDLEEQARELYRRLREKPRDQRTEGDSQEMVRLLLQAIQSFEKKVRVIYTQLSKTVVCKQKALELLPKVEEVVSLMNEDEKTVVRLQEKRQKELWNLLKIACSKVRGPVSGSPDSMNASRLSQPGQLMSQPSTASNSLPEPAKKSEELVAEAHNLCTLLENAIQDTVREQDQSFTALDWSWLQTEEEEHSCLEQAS
Outline: as §1

UniProt Q9Y5S2 = conditions: cell material: Lysate mix
UniProt Q9Y5S2, sequence (Q9Y5S2 whole entry): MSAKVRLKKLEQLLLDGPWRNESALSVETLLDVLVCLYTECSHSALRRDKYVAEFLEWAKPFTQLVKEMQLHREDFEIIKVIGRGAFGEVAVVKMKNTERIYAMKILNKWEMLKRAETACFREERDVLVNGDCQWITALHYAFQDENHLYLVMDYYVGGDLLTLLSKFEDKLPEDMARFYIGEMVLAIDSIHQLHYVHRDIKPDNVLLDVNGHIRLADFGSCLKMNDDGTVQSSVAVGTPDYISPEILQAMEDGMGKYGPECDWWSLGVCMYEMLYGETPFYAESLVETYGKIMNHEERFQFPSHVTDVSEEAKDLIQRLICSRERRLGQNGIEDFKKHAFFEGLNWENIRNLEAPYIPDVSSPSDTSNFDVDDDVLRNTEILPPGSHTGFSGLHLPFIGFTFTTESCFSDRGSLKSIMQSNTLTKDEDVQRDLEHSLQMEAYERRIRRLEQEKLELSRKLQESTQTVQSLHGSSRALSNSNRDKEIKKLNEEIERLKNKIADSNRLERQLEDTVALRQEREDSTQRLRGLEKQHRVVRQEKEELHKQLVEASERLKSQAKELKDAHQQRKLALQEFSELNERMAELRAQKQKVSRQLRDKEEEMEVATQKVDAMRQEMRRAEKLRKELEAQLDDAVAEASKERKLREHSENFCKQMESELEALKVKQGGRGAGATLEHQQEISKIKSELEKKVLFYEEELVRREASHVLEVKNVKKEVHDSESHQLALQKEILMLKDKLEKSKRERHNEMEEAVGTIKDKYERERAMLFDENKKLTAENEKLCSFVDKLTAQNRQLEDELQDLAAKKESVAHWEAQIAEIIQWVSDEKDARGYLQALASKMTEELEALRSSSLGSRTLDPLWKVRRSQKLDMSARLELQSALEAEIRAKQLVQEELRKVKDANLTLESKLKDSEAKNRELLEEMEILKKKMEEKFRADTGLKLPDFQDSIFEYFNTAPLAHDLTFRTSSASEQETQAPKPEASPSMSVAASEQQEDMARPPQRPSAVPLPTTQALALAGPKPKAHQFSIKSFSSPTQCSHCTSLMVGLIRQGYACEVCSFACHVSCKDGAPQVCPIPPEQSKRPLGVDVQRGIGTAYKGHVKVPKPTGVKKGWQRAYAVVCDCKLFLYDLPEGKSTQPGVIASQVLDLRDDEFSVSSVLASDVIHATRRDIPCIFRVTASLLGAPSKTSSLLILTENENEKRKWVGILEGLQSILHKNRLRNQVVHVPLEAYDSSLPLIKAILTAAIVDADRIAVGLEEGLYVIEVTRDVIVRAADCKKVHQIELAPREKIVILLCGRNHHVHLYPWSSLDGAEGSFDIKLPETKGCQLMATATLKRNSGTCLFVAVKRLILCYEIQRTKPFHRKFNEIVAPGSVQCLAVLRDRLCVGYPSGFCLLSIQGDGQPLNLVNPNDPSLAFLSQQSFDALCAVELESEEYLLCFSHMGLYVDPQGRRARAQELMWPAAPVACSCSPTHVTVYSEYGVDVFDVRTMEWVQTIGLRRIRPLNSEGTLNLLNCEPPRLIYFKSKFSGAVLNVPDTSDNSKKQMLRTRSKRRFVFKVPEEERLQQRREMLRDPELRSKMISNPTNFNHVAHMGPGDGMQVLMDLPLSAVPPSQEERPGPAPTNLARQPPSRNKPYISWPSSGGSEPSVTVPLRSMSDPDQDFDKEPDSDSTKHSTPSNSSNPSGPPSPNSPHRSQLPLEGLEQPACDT
Outline: as §1

ACVR2A, sequence (P27037 whole entry): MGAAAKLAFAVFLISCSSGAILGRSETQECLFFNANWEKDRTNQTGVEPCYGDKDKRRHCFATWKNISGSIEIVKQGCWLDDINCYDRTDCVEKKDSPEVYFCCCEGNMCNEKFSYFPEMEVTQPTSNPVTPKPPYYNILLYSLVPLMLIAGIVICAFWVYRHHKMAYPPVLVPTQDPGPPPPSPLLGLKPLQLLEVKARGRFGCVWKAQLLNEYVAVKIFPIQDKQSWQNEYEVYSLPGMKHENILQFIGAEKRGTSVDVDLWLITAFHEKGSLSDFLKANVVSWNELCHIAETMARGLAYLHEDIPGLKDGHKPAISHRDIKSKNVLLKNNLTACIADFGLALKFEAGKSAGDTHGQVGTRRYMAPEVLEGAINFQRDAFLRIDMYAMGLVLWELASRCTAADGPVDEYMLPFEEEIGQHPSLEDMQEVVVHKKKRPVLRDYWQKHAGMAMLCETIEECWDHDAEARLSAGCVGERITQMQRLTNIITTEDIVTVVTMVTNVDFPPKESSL

pIC50 (ACVR2A) | pIC50 (BRSK2; cell material: Lysate mix) | pIC50 (LATS1; cell material: Lysate mix) | pIC50 (NEK7; cell material: Lysate mix) | pIC50 (PDIK1L; cell material: Lysate mix) | pIC50 (UniProt O14920; cell material: Lysate mix) | pIC50 (UniProt Q9Y5S2) | Compound | pIC50 (BRSK2; cell material: Jurkat cells) | pIC50 (BRSK2; cell material: Jurkat lysate) | pIC50 (LATS1; cell material: Jurkat cells) | pIC50 (LATS1; cell material: Jurkat lysate) | pIC50 (NEK7; cell material: Jurkat cells) | pIC50 (NEK7; cell material: Jurkat lysate) | pIC50 (PDIK1L; cell material: Jurkat cells) | pIC50 (PDIK1L; cell material: Jurkat lysate) | pIC50 (UniProt O14920; cell material: Jurkat cells) | pIC50 (UniProt O14920; cell material: Jurkat lysate)
< 4.52 | < 4.52 | 4.65 | < 4.52 | 5.14 | < 4.52 | < 4.52 | C#CCNC(=O)c1cc(Nc2cc(C)[nH]n2)nc(N2CCN(Cc3ccc(S(=O)(=O)F)cc3)CC2)n1 | – | – | – | – | – | – | – | – | – | –
< 4.52 | < 4.52 | < 4.52 | < 4.52 | < 4.52 | < 4.52 | < 4.52 | O=C(NCCNC(=O)c1cc(Nc2cc(C3CC3)[nH]n2)nc(N2CCN(Cc3ccc(S(=O)(=O)F)cc3)CC2)n1)OC1CC/C=C/CCC1 (configuration not stated) | 5.93 | < 4.52 | 5.78 | < 4.52 | 6.85 | < 4.52 | 5.43 | < 4.52 | < 4.52 | < 4.52
< 4.52 | < 4.52 | < 4.52 | < 4.52 | < 4.52 | < 4.52 | < 4.52 | Cc1cc(Nc2cc(C(=O)NCCNC(=O)OC3CC/C=C/CCC3)nc(N3CCN(Cc4ccc(S(=O)(=O)F)cc4)CC3)n2)n[nH]1 (configuration not stated) | – | – | – | – | – | – | – | – | – | –

More lines, now with the values behind:

Compound | pIC50 (ACVR2A) | pIC50 (BRSK2; cell material: Lysate mix) | pIC50 (LATS1; cell material: Lysate mix) | pIC50 (NEK7; cell material: Lysate mix) | pIC50 (PDIK1L; cell material: Lysate mix) | pIC50 (UniProt O14920; cell material: Lysate mix) | pIC50 (UniProt Q9Y5S2) | pIC50 (BRSK2; cell material: Jurkat cells) | pIC50 (BRSK2; cell material: Jurkat lysate) | pIC50 (LATS1; cell material: Jurkat cells) | pIC50 (LATS1; cell material: Jurkat lysate) | pIC50 (NEK7; cell material: Jurkat cells) | pIC50 (NEK7; cell material: Jurkat lysate) | pIC50 (PDIK1L; cell material: Jurkat cells) | pIC50 (PDIK1L; cell material: Jurkat lysate) | pIC50 (UniProt O14920; cell material: Jurkat cells) | pIC50 (UniProt O14920; cell material: Jurkat lysate)
C#CCNC(=O)c1cc(Nc2cc(C3CC3)[nH]n2)nc(N2CCN(Cc3ccc(S(=O)(=O)F)cc3)CC2)n1 | < 4.52 | 4.84 | 5.56 | < 4.52 | 5.64 | < 4.52 | < 4.52 | 6.54 | < 4.52 | 6.2 | 4.7 | 6.88 | < 4.52 | 6.16 | 5.61 | < 4.52 | < 4.52
CCNC(=O)c1cc(Nc2cc(C3CC3)[nH]n2)nc(N2CCN(Cc3ccc(S(=O)(=O)F)cc3)CC2)n1 | < 4.52 | < 4.52 | 5.3 | < 4.52 | 5.89 | < 4.52 | < 4.52 | – | – | – | – | – | – | – | – | – | –
CCNC(=O)c1cc(Nc2cc(C)[nH]n2)nc(N2CCN(Cc3ccc(S(=O)(=O)F)cc3)CC2)n1 | < 4.52 | < 4.52 | < 4.52 | < 4.52 | 5.5 | < 4.52 | < 4.52 | – | – | – | – | – | – | – | – | – | –
